The nature of the series: aqueous solubility. Type of series: physicochemical. The settings on record: aqueous environment, water; aqueous environments; about 22° C. unless otherwise specified. An excerpt: The CETP inhibitor may be any compound capable of inhibiting the cholesteryl ester transfer protein. Solid amorphous dispersions are particularly useful for CETP inhibitors that have sufficiently low aqueous solubility, low bioavailability or slow rate of absorption such that it is desirable to increase their concentration in an aqueous environment of use. The CETP inhibitor is typically “sparingly water-soluble,” which means that the CETP inhibitor has a minimum aqueous solubility of less than about 1 to 2 mg/mL at any physiologically relevant pH (e.g., pH 1-8) and at about 22° C. Many CETP inhibitors are “substantially water-insoluble,” which means that the CETP inhibitor has a minimum aqueous solubility of less than about 0.01 mg/mL (or 10 μg/ml) at any physiologically relevant pH (e.g., pH 1-8) and at about 22° C. (Unless otherwise specified, reference to aqueous solubility herein and in the claims is determined at about 22° C.) Compositions of the present invention find greater utility as the solubility of the CETP inhibitors decreases, and thus are preferred for CETP inhibitors with solubilities less than about 10 μg/mL, more preferred for CETP inhibitors with solubilities less than about 2 μg/mL, and even more preferred for CETP inhibitors with solubilities less than about 1 μg/mL. […]

For 1 molecule, solubility results are on record in patent US8828438B2, “Pharmaceutical compositions of cholesteryl ester transfer protein inhibitors and HMG-CoA reductase” (Bend Research, Inc., priority 2005, dated 2014).

As usually defined, the solubility is the concentration that dissolves in the medium under given conditions.

Molecules are shown by their SMILES.

With `CCOC(=O)N1c2ccc(C(F)(F)F)cc2[C@@H](N(Cc2cc(C(F)(F)F)cc(C(F)(F)F)c2)C(=O)OC)C[C@H]1CC` [torcetrapib, [2R,4S]-4-[(3,5-bis-trifluoromethyl-benzyl)-methoxycarbonyl-amino]-2-ethyl-6-trifluoromethyl-3,4-dihydro-2H-quinoline-1-carboxylic acid ethyl ester], the solubility was < 0.04 µg/mL.
